Experiments:
[1] = Stability in the form of a powder; assay type: physicochemical; details: compound and its salts
[2] = test system: HT-29 cell line (human colon cancer cells); assay: Test of cell proliferation of the HT-29 cells (WST1), products individually or in combination; assay type: cell-based; details: Combination 13: Compound B13 (10^−9 M) individually; 120 hours
Protocol: A) Test of Cell Proliferation of the HT-29 Cells
The protocol for the test used to obtain the results shown is described below:
The HT-29 cell line (human colon cancer cells) were acquired from the American Tissue Culture Collection (Rockville, Md., USA).
The HT-29 cells (2000 cells/well) are cultured in 96-well plates. On day 0, these cells are seeded in 90 μl of Dulbecco's modified Eagle medium (Gibco-Brl, Cergy-Pontoise, France) completed with 10% foetal calf serum inactived by heating (Gibco-Brl, Cergy-Pontoise, France), 50000 units/l of penicillin and 50 mg/l streptomycin (Gibco-Brl, Cergy-Pontoise, France), and 2 mM of glutamine (Gibco-Brl, Cergy-Pontoise, France).
The cells were treated simultaneously with concentrations of two products individually or in combination on Day 1 and for 120 hours.
At the end of the of this period (D6), quantification of cell proliferation is evaluated by a colorimetric test based on the cleavage of the tetrazolium salt WST1 by mitochondrial dehydrogenases in living cells leading to the formation of formazan (Boehringer Mannheim, Meylan, France). These tests are carried out at least in duplicate with 4 determinations for each individual product and for each combination tested. This allows determination of the number of living cells at the end of each treatment.

[3] = test system: Mia-PaCa2 (human pancreas cancer cells); assay: Antiproliferative activity on Mia-Paca2 cells (WST1); assay type: cell-based; details: MIA PaCa-2, 96 hours treatment, read-out: IC50 on the cell proliferation of Mia-Paca2 lines
Protocol: (§1) ii) Characterization of the Antiproliferative Activity:
(§2) By way of example, the effect of a treatment on two human cell lines Mia-Paca2 and DU145 with the compounds of the examples described previously will be studied. The cell lines DU145 (human prostate cancer cells) and Mia-PaCa2 (human pancreas cancer cells) were acquired from the American Tissue Culture Collection (Rockville, Md., USA). The cells placed in 80 μl of Dulbecco's Modified Eagle's medium (Gibco-Brl, Cergy-Pontoise, France) completed with 10% foetal calf serum inactivated by heating (Gibco-Brl, Cergy-Pontoise, France), 50,000 units/l of penicillin and 50 mg/l of streptomycin (Gibco-Brl, Cergy-Pontoise, France), and 2 mM of glutamine (Gibco-Brl, Cergy-Pontoise, France) were seeded on a 96-well plate on day 0. The cells were treated on day 1 for 96 hours with increasing concentrations of each of the compounds to be tested up to 10 μM. At the end of this period, quantification of cell proliferation is evaluated by a colorimetric test based on the cleavage of the tetrazolium salt WST1 by the mitochondrial dehydrogenases in viable cells leading to the formation of formazan (Boehringer Mannheim, Meylan, France). These tests are carried out in duplicate with 8 determinations per concentration tested. For each compound to be tested, the values included in the linear part of the sigmoid were retained for a linear regression analysis and used to estimate the inhibitory concentration IC50. The products are solubilized in dimethylsulphoxide (DMSO) at 10^−2 M and finally used in culture with 0.1% DMSO.

[4] = test system: DU145 (human prostate cancer cells); assay: Antiproliferative activity on DU145 cells (WST1); assay type: cell-based; details: DU-145, 96 hours treatment, read-out: IC50 on the cell proliferation of DU-145 lines
Protocol: as §1
as §2, with “For each compound to be tested, the values included in the linear part of the sigmoid were retained for a linear regression analysis and used to estimate the inhibitory concentration IC50. The products are solubilized in dimethylsulphoxide (DMSO) at 10^−2 M and finally used in culture with 0.1% DMSO.” left out

N[C@@H](CSSC[C@H](N)C(=O)N1CCn2cc(-c3ccccc3)nc2[C@@H]1CC1CCCCC1)C(=O)N1CCn2cc(-c3ccccc3)nc2[C@@H]1CC1CCCCC1 [(1R)-1-[({(2R)-2-amino-3-[(8S)-8-(cyclohexylmethyl)-2-phenyl-5,6-dihydroimidazo[1,2-a]pyrazin-7(8H)-yl]-3-oxopropyl}dithio)methyl]-2-[(8)-8-(cyclohexylmethyl)-2-phenyl-5,6-dihydroimidazo[1,2-a]pyrazin-7(8H)-yl]-2-oxoethylamine]
stability in the form of a powder [1]: particularly stable
in vivo toxicity data (In vivo toxicity): excellent

CC[C@@]1(O)CC(=O)OCc2c1cc1n(c2=O)Cc2c-1nc1cc(Cl)c(C)cc1c2CN1CCC(C)CC1.Cl [Compound B13, (+)-9-chloro-5-ethyl-5-hydroxy-10-methyl-12-(4-methylpiperidinomethyl)-4,5,13,15-tetrahydro-1H,3H-oxepino[3′,4′:6,7]indolizino[1,2-c]quinoline-3,15-dione hydrochloride]
% of surviving cells [2]: 91%

CCCNC1=CC(=O)c2sc(C)nc2C1=O [Example 11, 2-methyl-5-(propylamino)-1,3-benzothiazole-4,7-dione]
IC50 [3]: ≤ 10 µM
IC50 [4]: ≤ 10 µM

CCc1nc2c(o1)C(=O)C(C)=C(NCCN(C)C)C2=O [Example 55, 5-{[2-(dimethylamino)ethyl]amino}-2-ethyl-6-methyl-1,3-benzoxazole-4,7-dione]
IC50 [3]: ≤ 10 µM
melting point: 135 °C

Reference: patent US20060281736A1, “Product comprising at least one phosphatase cdc25 inhibitor combined with at least one other anticancer agent” (priority 2003, published 2006)
